Measurements as given in the OligoGym collection.
HELM strings list units from the 5' end as sugar, base in round brackets, then linkage (d deoxyribose, r ribose, m 2'-O-methyl, p phosphodiester). Strings are as the collection lists them; they lack the last nucleoside at the 3' end of the tested compound. [moe] = 2'-O-(2-methoxyethyl) (MOE); [sp] = phosphorothioate linkage; [m5C] = 5-methylcytosine

Target: SCN2A
Assay: mouse, dose not given
Conditions: ASO

Substance	3 h FOB score
RNA1{[moe]([m5C])[sp].[moe](T)p.[moe](G)p.[moe]([m5C])p.d(A)[sp].d(T)[sp].d(G)[sp].d(T)[sp].d(A)[sp].d(A)[sp].d([m5C])[sp].d([m5C])[sp].d(T)[sp].d(T)[sp].[moe](T)p.[moe](A)p.[moe](T)p.[moe](A)[sp].[moe]([m5C])}$$$$ (last 3' nucleoside missing)	0 score 0-7
RNA1{[moe]([m5C])[sp].[moe](T)p.[moe]([m5C])p.[moe](T)p.[moe](T)p.[moe](T)p.d([m5C])[sp].d(T)[sp].d(T)[sp].d(A)[sp].d(T)[sp].d(T)[sp].d(T)[sp].d([m5C])[sp].d(T)[sp].d(G)[sp].[moe](T)p.[moe](T)[sp].[moe](T)}$$$$ (last 3' nucleoside missing)	1 score 0-7
RNA1{[moe]([m5C])[sp].[moe](T)p.[moe]([m5C])p.[moe](T)p.[moe](T)p.d(T)[sp].d([m5C])[sp].d(T)[sp].d(T)[sp].d(A)[sp].d(T)[sp].d(T)[sp].d(T)[sp].d([m5C])[sp].d(T)[sp].[moe](G)p.[moe](T)p.[moe](T)[sp].[moe](T)}$$$$ (last 3' nucleoside missing)	0 score 0-7
RNA1{[moe]([m5C])[sp].[moe](T)p.[moe]([m5C])p.[moe](T)p.d(T)[sp].d(T)[sp].d([m5C])[sp].d(T)[sp].d(T)[sp].d(A)[sp].d(T)[sp].d(T)[sp].d(T)[sp].d([m5C])[sp].[moe](T)p.[moe](G)p.[moe](T)p.[moe](T)[sp].[moe](T)}$$$$ (last 3' nucleoside missing)	0 score 0-7
RNA1{[moe]([m5C])[sp].[moe]([m5C])p.[moe](A)p.[moe](G)p.[moe](T)p.d(T)[sp].d(T)[sp].d(T)[sp].d(T)[sp].d(T)[sp].d([m5C])[sp].d(A)[sp].d(T)[sp].d(T)[sp].d(G)[sp].[moe]([m5C])p.[moe](A)p.[moe](T)[sp].[moe]([m5C])}$$$$ (last 3' nucleoside missing)	1.33 score 0-7
RNA1{[moe]([m5C])[sp].[moe]([m5C])p.[moe](A)p.[moe](G)p.d(T)[sp].d(T)[sp].d(T)[sp].d(T)[sp].d(T)[sp].d(T)[sp].d([m5C])[sp].d(A)[sp].d(T)[sp].d(T)[sp].[moe](G)p.[moe]([m5C])p.[moe](A)p.[moe](T)[sp].[moe]([m5C])}$$$$ (last 3' nucleoside missing)	0 score 0-7
RNA1{[moe]([m5C])[sp].[moe]([m5C])p.[moe](A)p.[moe](T)p.[moe](T)p.[moe](T)p.d([m5C])[sp].d(T)[sp].d(A)[sp].d(T)[sp].d(A)[sp].d(A)[sp].d([m5C])[sp].d(T)[sp].d([m5C])[sp].d(A)[sp].[moe](G)p.[moe]([m5C])[sp].[moe](A)}$$$$ (last 3' nucleoside missing)	0 score 0-7
RNA1{[moe]([m5C])[sp].[moe]([m5C])p.[moe](A)p.[moe](T)p.[moe](T)p.d(T)[sp].d([m5C])[sp].d(T)[sp].d(A)[sp].d(T)[sp].d(A)[sp].d(A)[sp].d([m5C])[sp].d(T)[sp].d([m5C])[sp].[moe](A)p.[moe](G)p.[moe]([m5C])[sp].[moe](A)}$$$$ (last 3' nucleoside missing)	0 score 0-7
RNA1{[moe]([m5C])[sp].[moe]([m5C])p.[moe](A)p.[moe](T)p.d(T)[sp].d(T)[sp].d([m5C])[sp].d(T)[sp].d(A)[sp].d(T)[sp].d(A)[sp].d(A)[sp].d([m5C])[sp].d(T)[sp].[moe]([m5C])p.[moe](A)p.[moe](G)p.[moe]([m5C])[sp].[moe](A)}$$$$ (last 3' nucleoside missing)	0 score 0-7
RNA1{[moe]([m5C])[sp].[moe]([m5C])p.[moe](A)p.[moe]([m5C])p.[moe](G)p.[moe](A)p.d([m5C])[sp].d(A)[sp].d(T)[sp].d(A)[sp].d(T)[sp].d(T)[sp].d(T)[sp].d(T)[sp].d(T)[sp].d([m5C])[sp].[moe](T)p.[moe](A)[sp].[moe]([m5C])}$$$$ (last 3' nucleoside missing)	0 score 0-7
RNA1{[moe]([m5C])[sp].[moe]([m5C])p.[moe](A)p.[moe]([m5C])p.[moe](G)p.[moe]([m5C])p.d(T)[sp].d(T)[sp].d(A)[sp].d([m5C])[sp].d(A)[sp].d(T)[sp].d([m5C])[sp].d(A)[sp].d(A)[sp].d(A)[sp].[moe]([m5C])p.[moe](A)[sp].[moe](T)}$$$$ (last 3' nucleoside missing)	0 score 0-7
RNA1{[moe]([m5C])[sp].[moe]([m5C])p.[moe](A)p.[moe]([m5C])p.[moe](G)p.d(A)[sp].d([m5C])[sp].d(A)[sp].d(T)[sp].d(A)[sp].d(T)[sp].d(T)[sp].d(T)[sp].d(T)[sp].d(T)[sp].[moe]([m5C])p.[moe](T)p.[moe](A)[sp].[moe]([m5C])}$$$$ (last 3' nucleoside missing)	0 score 0-7
RNA1{[moe]([m5C])[sp].[moe]([m5C])p.[moe](A)p.[moe]([m5C])p.[moe](G)p.d([m5C])[sp].d(T)[sp].d(T)[sp].d(A)[sp].d([m5C])[sp].d(A)[sp].d(T)[sp].d([m5C])[sp].d(A)[sp].d(A)[sp].[moe](A)p.[moe]([m5C])p.[moe](A)[sp].[moe](T)}$$$$ (last 3' nucleoside missing)	0 score 0-7
RNA1{[moe]([m5C])[sp].[moe]([m5C])p.[moe](A)p.[moe]([m5C])p.d(G)[sp].d(A)[sp].d([m5C])[sp].d(A)[sp].d(T)[sp].d(A)[sp].d(T)[sp].d(T)[sp].d(T)[sp].d(T)[sp].[moe](T)p.[moe]([m5C])p.[moe](T)p.[moe](A)[sp].[moe]([m5C])}$$$$ (last 3' nucleoside missing)	1 score 0-7
RNA1{[moe]([m5C])[sp].[moe]([m5C])p.[moe](A)p.[moe]([m5C])p.d(G)[sp].d([m5C])[sp].d(T)[sp].d(T)[sp].d(A)[sp].d([m5C])[sp].d(A)[sp].d(T)[sp].d([m5C])[sp].d(A)[sp].[moe](A)p.[moe](A)p.[moe]([m5C])p.[moe](A)[sp].[moe](T)}$$$$ (last 3' nucleoside missing)	0 score 0-7
RNA1{[moe]([m5C])[sp].[moe]([m5C])p.[moe](G)p.[moe](A)p.[moe](A)p.[moe](T)p.d(T)[sp].d([m5C])[sp].d(T)[sp].d(A)[sp].d(T)[sp].d(T)[sp].d(T)[sp].d(T)[sp].d(A)[sp].d(T)[sp].[moe](A)p.[moe](A)[sp].[moe](A)}$$$$ (last 3' nucleoside missing)	0 score 0-7
RNA1{[moe]([m5C])[sp].[moe]([m5C])p.[moe](G)p.[moe](A)p.[moe](A)p.d(T)[sp].d(T)[sp].d([m5C])[sp].d(T)[sp].d(A)[sp].d(T)[sp].d(T)[sp].d(T)[sp].d(T)[sp].d(A)[sp].[moe](T)p.[moe](A)p.[moe](A)[sp].[moe](A)}$$$$ (last 3' nucleoside missing)	0.67 score 0-7
RNA1{[moe]([m5C])[sp].[moe]([m5C])p.[moe](G)p.[moe](A)p.d(A)[sp].d(T)[sp].d(T)[sp].d([m5C])[sp].d(T)[sp].d(A)[sp].d(T)[sp].d(T)[sp].d(T)[sp].d(T)[sp].[moe](A)p.[moe](T)p.[moe](A)p.[moe](A)[sp].[moe](A)}$$$$ (last 3' nucleoside missing)	0 score 0-7
